Read-outs that look alike come from different tables or passages of the source.
Columns and labels:
[1] = tested on: SW620 cells (metastatic derivative of SW480); assay: Sulforhodamine B (SRB) cytotoxicity assay, SW620; type: cell-based, human; conditions: for SI (selectivity index): IC50 CHO-K1 / IC50 SW620; for IC50: Homo sapiens, SW-620, SRB, mean ± SE
Method: (§1) To determine the cytotoxic effect of the synthesized hybrids, they were evaluated against SW480 human colon adenocarcinoma cells, its metastatic derivative SW620 and the non-malignant CHO-K1 cell line, through the sulforhodamine B assay. In this experiment, 5-FU was also included as the reference drug, as well as the parental subunits (curcumin and resveratrol) and the equimolar mixture of these. Cytotoxicity was reported as 50% inhibitory concentration (IC50 values).
(§2) Biological assays were performed using an adenocarcinoma colon cancer cell line (SW480), its metastatic derivative (SW620) and non-malignant cells (CHO-K1). These were obtained from The European Collection of Authenticated Cell Cultures (ECACC, England) and maintained in Dulbecco’s Modified Eagle Medium, supplemented with 10% heat-inactivated (56 °C) horse serum, 1% penicillin/streptomycin and 1% non-essential amino acids (Gibco Invitrogen, Carlsbad, USA). For all experiments, horse serum was reduced to 3%, and the medium was supplemented with […], 5 ng/mL selenium and […] (ITS-defined medium; Gibco, Invitrogen, Carlsbad, CA, USA).
(§3) Cytotoxicity of the synthesized hybrids, lead and reference compounds was evaluated through Sulforhodamine B (SRB) assay, a colorimetric test that is based on staining of total cellular protein of adherent cells. Cells were seeded to a final density of 20,000 cells/well in 96-well tissue culture plates and incubated at 37 °C in a humidified atmosphere at 5% CO2. All cultures were allowed to grow for 24 h, and afterward they were treated with DMSO (vehicle control 1%) or increasing concentrations (0.01–200 µM) of the synthesized hybrids, as well as curcumin and resveratrol (lead compounds), the equimolar mixture of these and 5-fluorouracil (5-FU; the standard drug). After treatment, cells were fixed with trichloroacetic acid (50% v/v) (MERCK) for a period of 1 h at 4 °C. Cell proteins were determined by staining with 0.4% (w/v) SRB (Sigma-Aldrich, United States), and then they were washed with 1% acetic acid for the removal of unbound SRB and left for air-drying. Protein bound SRB was solubilized in 10 mM Tris-base and the absorbance was measured at 492 nm in a microplate reader (Mindray MR-96A). All experiments were performed at least in triplicate.

[2] = tested on: non-malignant CHO-K1 cell line; assay: Sulforhodamine B (SRB) cytotoxicity assay, non-malignant cells; type: cell-based; conditions: Cricetulus griseus, mean ± SE
Method: as §1, §2, §3

SW620 cell line = assay: Antiproliferative activity (SRB, 2-8 days), SW620; type: cell-based, human; conditions: for viability at 10 µM / viability at 160 µM: Homo sapiens, vehicle control = 100%, read-out: Viability (%) ± SE; for viability at 10 µM: SW620, 10 µM; for viability at 160 µM: SW620, 160 µM; for reduction in viability: SW620, after two days of treatment, concentrations higher than 10 µM
Method: (§4) With the aim of testing the antiproliferative effect of the most cytotoxic and selective hybrids (3e and 3i for SW480 and 3a, 3e and 3k for SW620), they were analyzed through a longer period. According to the results in comparison with the control, it was observed that the activity was time- and concentration-dependent, as evidenced by the decrease in cell viability in the highest concentrations (Table 2). […] Similar results were presented in a previous investigation by Herrera-R et al. (2018), reporting the antiproliferative effect and morphological changes in SW480 cells after treatment with different hybrids using a stilbene moiety, which highlights the potential of this scaffold in the approach to design molecules with potential activity against CRC.
(§5) Briefly, cells were seeded to a final density of 2500 cells/well in 96-well tissue culture plates and incubated in the same conditions described for cytotoxicity. […] Culture media was replaced every 48 h. After each incubation time, cells were fixed, stained and read as previously described for this technique.

SW480 cell line = assay: Antiproliferative activity (SRB, 2-8 days), SW480; type: cell-based; conditions: Homo sapiens, vehicle control = 100%, read-out: Viability (%) ± SE; for viability at 10 µM: SW480, 10 µM; for viability at 160 µM: SW480, 160 µM
Method: as §4, §5

[3] = tested on: SW480 human colon adenocarcinoma cells; assay: Sulforhodamine B (SRB) cytotoxicity assay, SW480; type: cell-based; conditions: for SI (selectivity index): IC50 CHO-K1 / IC50 SW480; for IC50: SRB, mean ± SE
Method: as §1, §2, §3

[4] = tested on: MDA-MB-231/ATCC, PC-3, SNB-75, RPMI-8226, MOLT-4, CCRF-CEM and HS 578T cell lines; set-up: method as in doi:10.1007/s00044-014-1146-2; conditions: mean over cell lines; cited from earlier work
[5] = tested on: LNCaP (human androgen-dependent prostate cancer) cell line; set-up: method as in PMID 26341135; conditions: cited from earlier work
[6] = tested on: A549 human lung cancer cells; set-up: method as in PMID 26174555; conditions: cited from earlier work
[7] = tested on: MCF-7 human breast cancer cell line; set-up: method as in PMID 26174555; conditions: cited from earlier work
[8] = tested on: SKOV-3 ovarian carcinoma cells; set-up: method as in PMID 26174555; conditions: cited from earlier work
[9] = tested on: H-460 human lung cancer cells; set-up: method as in PMID 26174555; conditions: cited from earlier work
[10] = Homo sapiens, SW480, 24 h, 24 h
[11] = Homo sapiens, SW480, 48 h, 48 h

## COc1ccc(/C=C/c2ccc(C(=O)/C=C/c3ccc(O)c(OC)c3)cc2)c(OC)c1 [Hybrid 3e, (E)-1-(4-((E)-2,4-Dimethoxystyryl)phenyl)-3-(4-hydroxy-3-methoxyphenyl)prop-2-en-1-one]
[1]; 24 h
  SI (selectivity index): 1.81
  IC50: 55.5 ± 8 µM
[1]; 48 h
  IC50: 20.4 ± 3.51 µM
[2]; 24 h
  IC50: 100.6 ± 1 µM
[2]; 48 h
  IC50: 43.3 ± 6.84 µM
SW620 cell line; SW-620, 48 h, day 2
  viability at 10 µM: 80.6 ± 4%
  viability at 160 µM: 5 ± 1%
SW620 cell line; SW-620, 96 h, day 4
  viability at 10 µM: 11.1 ± 4.2%
  viability at 160 µM: 4.1%
SW620 cell line; SW-620, 144 h, day 6
  viability at 10 µM: 4.1 ± 2.2%
  viability at 160 µM: 0%
SW620 cell line; SW-620, 192 h, day 8
  viability at 10 µM: 0.6 ± 0.5%
  viability at 160 µM: 0%
SW620 cell line
  reduction in viability: significant reduction in viability
SW480 cell line; 48 h, day 2
  viability at 10 µM: 53.9 ± 5.3%
  viability at 160 µM: 32.9 ± 1.3%
SW480 cell line; 96 h, day 4
  viability at 10 µM: 2.3 ± 0.3%
  viability at 160 µM: 0.9 ± 0.2%
SW480 cell line; 144 h, day 6
  viability at 10 µM: 3.8 ± 2.7%
  viability at 160 µM: 0.5 ± 0.2%
SW480 cell line; 192 h, day 8
  viability at 10 µM: 5.2 ± 0.3%
  viability at 160 µM: 0.1 ± 0.1%
[3]; 24 h
  SI (selectivity index): 1.85
[3]; [10]
  IC50: 54.4 ± 6.93 µM
other
  melting point: 78 to 82 °C

## COc1cc(/C=C/C(=O)c2ccc(/C=C/c3ccc(O)cc3)cc2)ccc1O [Hybrid 3a, (E)-3-(4-Hydroxy-3-methoxyphenyl)-1-(4-((E)-4-hydroxystyryl)phenyl)prop-2-en-1-one]
[1]; 24 h
  SI (selectivity index): 0.74
  IC50: 166 ± 11.8 µM
[1]; 48 h
  IC50: 20.2 ± 1.21 µM
[2]; 24 h
  IC50: 122 ± 15.5 µM
[2]; 48 h
  IC50: 51.6 ± 10.5 µM
SW620 cell line; SW-620, 48 h, day 2
  viability at 10 µM: 71.9 ± 1.9%
  viability at 160 µM: 16.1%
SW620 cell line; SW-620, 96 h, day 4
  viability at 10 µM: 10.7 ± 4.7%
  viability at 160 µM: 0%
SW620 cell line; SW-620, 144 h, day 6
  viability at 10 µM: 2.5 ± 0.5%
  viability at 160 µM: 0%
SW620 cell line; SW-620, 192 h, day 8
  viability at 10 µM: 0.2 ± 0.3%
  viability at 160 µM: 0%
[3]; 24 h
  SI (selectivity index): 1.28
[3]; 48 h
  SI (selectivity index): 0.54
[3]; [10]
  IC50: 96 ± 2.76 µM
[3]; [11]
  IC50: 95.1 ± 7.02 µM
other
  melting point: 119 to 120 °C

## COc1cc(/C=C/C(=O)c2ccc(/C=C/c3ccc(OC)c(OC)c3)cc2)ccc1O [Hybrid 3i, (E)-1-(4-((E)-3,4-dimethoxystyryl)phenyl)-3-(4-hydroxy-3-methoxyphenyl)prop-2-en-1-one]
[1]; 24 h
  SI (selectivity index): 1.32
  IC50: 78.9 ± 6.2 µM
[1]; 48 h
  SI (selectivity index): 0.96
  IC50: 29.3 ± 4.73 µM
[2]; 24 h
  IC50: 104 ± 5.03 µM
[2]; 48 h
  IC50: 28.3 ± 9.3 µM
SW480 cell line; 48 h, day 2
  viability at 10 µM: 54.4 ± 7.4%
  viability at 160 µM: 30.3 ± 8.5%
SW480 cell line; 96 h, day 4
  viability at 10 µM: 2 ± 0.2%
  viability at 160 µM: 1.7 ± 0.1%
SW480 cell line; 144 h, day 6
  viability at 10 µM: 1.6 ± 0.2%
  viability at 160 µM: 0.1 ± 0.1%
SW480 cell line; 192 h, day 8
  viability at 10 µM: 1.6 ± 0.3%
  viability at 160 µM: 0.2 ± 0.1%
[3]; 24 h
  SI (selectivity index): 2.09
[3]; 48 h
  IC50: 11.5 ± 2.78 µM
[3]; [10]
  IC50: 49.7 ± 4.56 µM
[3]; [11]
  IC50: 11.5 to 29.2 µM
other
  melting point: 67 to 70 °C

## COc1ccc(C2NC(=O)NC(/C=C/c3ccc(O)c(OC)c3)=C2C(=O)/C=C/c2ccc(O)c(OC)c2)cc1 (stereo not drawn) [Curcumin–monastrol hybrid]
[4]
  mean growth percentage (GP): 88.90

## COc1cc(/C=C/C(=O)c2ccc(/C=C/c3cc(OC)c(OC)c(OC)c3)cc2)ccc1O [Hybrid 3k, (E)-3-(4-Hydroxy-3-methoxyphenyl)-1-(4-((E)-3,4,5-trimethoxystyryl)phenyl)prop-2-en-1-one]
[1]; 24 h
  SI (selectivity index): 3.65
  IC50: 20.4 ± 2.43 µM
[1]; 48 h
  IC50: 11.8 ± 1.2 µM
[2]; 24 h
  IC50: 74.6 ± 4.2 µM
[2]; 48 h
  IC50: 29.4 ± 2.29 µM
SW620 cell line; SW-620, 48 h, day 2
  viability at 10 µM: 56.1 ± 4%
  viability at 160 µM: 2.4 ± 0.7%
SW620 cell line; SW-620, 96 h, day 4
  viability at 10 µM: 12.1%
  viability at 160 µM: 0%
SW620 cell line; SW-620, 144 h, day 6
  viability at 10 µM: 1.9 ± 0.8%
  viability at 160 µM: 0%
SW620 cell line; SW-620, 192 h, day 8
  viability at 10 µM: 0.1 ± 0.1%
  viability at 160 µM: 0%
SW620 cell line
  reduction in viability: significant reduction in viability
[3]; 24 h
  SI (selectivity index): 0.84
[3]; 48 h
  SI (selectivity index): 0.34
[3]; [10]
  IC50: 88.5 ± 4.58 µM
[3]; [11]
  IC50: 85.8 ± 1.27 µM
other
  melting point: 74 to 77 °C

## CCn1ccnc1/C=C/C(=O)/C=C/c1coc2ccccc2c1=O [Hybrid curcum–imidazol]
[5]
  IC50: 1 µM

## C#CCn1c(=O)c(/C=C/C(=O)CC(=O)/C=C/c2ccc(O)c(OC)c2)cc2cc(C)ccc21 [curcumin–quinolone hybrid]
[6]
  IC50: 23.9 µM
[7]
  IC50: 36.2 µM
[8]
  IC50: 12.8 µM
[9]
  IC50: 21.8 µM

Reference: paper PMC8124228, “New Hybrids Based on Curcumin and Resveratrol: Synthesis, Cytotoxicity and Antiproliferative Activity against Colorectal Cancer Cells” (Molecules, 2021)
